Data taken from patent US7932270B2 (Cytokinetics, Inc., priority 2006, dated 2011).

The molecules below were run against T1, chicken gizzard smooth muscle myosin subfragment-1 chemically crosslinked to cardiac or skeletal actin (Gallus gallus, UniProt P10587) (assay: Smooth muscle myosin ATPase dose response assay (pyruvate kinase/horseradish peroxidase/pyruvate oxidase-coupled, amplex red fluorescence)). Conditions: read-out: IC50 Arithmetic Mean.
T1 construct: chicken gizzard smooth muscle myosin subfragment-1; from tissue; host or cells: chicken gizzard
T1 sequence (P02607 2-151): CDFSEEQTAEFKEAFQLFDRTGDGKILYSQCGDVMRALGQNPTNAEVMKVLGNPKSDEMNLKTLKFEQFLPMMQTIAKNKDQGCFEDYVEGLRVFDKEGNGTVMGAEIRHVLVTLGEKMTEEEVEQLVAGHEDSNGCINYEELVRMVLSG
T1 sequence (P10587 84-789): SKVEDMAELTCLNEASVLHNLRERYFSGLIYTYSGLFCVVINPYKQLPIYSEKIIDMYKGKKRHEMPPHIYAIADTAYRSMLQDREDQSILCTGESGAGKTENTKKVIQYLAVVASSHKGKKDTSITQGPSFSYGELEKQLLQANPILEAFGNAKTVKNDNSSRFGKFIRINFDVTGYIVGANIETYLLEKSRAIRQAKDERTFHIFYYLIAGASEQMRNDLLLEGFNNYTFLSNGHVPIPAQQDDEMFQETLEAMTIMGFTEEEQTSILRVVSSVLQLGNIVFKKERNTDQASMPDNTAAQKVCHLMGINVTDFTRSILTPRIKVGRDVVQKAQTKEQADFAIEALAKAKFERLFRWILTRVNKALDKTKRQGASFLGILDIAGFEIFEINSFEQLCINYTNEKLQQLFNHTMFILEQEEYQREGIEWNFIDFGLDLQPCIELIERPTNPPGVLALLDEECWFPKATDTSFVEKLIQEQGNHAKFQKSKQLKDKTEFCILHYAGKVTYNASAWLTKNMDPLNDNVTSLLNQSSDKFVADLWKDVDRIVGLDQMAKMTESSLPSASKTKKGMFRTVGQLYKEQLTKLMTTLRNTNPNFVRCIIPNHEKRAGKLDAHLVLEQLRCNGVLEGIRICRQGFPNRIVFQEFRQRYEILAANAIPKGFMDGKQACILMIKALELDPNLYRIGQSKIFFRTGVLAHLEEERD
Type: biochemical
Summary of the method: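 ATPase monitored by amplex red fluorescence (ex 480/em 615 nm) via pyruvate oxidase/HRP coupling, pH 7.00, ATP 0.15 mM. Enzyme: smooth muscle S1-actin crosslinked conjugate, amount set empirically by titration. Dose-response fitted with 4-parameter Hill equation for IC50.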

Compound	IC50 [nM]
O=C(NCc1cccnc1)c1ccc(-c2csc(CO)c2)nc1NCCc1cccc(F)c1 [(2-{[2-(3-fluorophenyl)ethyl]amino}-6-[5-(hydroxymethyl)(3-thienyl)](3-pyridyl))-N-(3-pyridylmethyl)carboxamide]	73
NCC1CCCCN1C(=O)c1ccc(-c2ccccc2)nc1NCCc1ccccn1 (stereo not drawn) [2-(aminomethyl)piperidyl 6-phenyl-2-[(2-(2-pyridyl)ethyl)amino](3-pyridyl) ketone]	18200
COCCCNC(=O)c1ccc(-c2ccccc2C#N)nc1NCCc1cccc(F)c1 [(6-(2-cyanophenyl)-2-{[2-(3-fluorophenyl)ethyl]amino}(3-pyridyl))-N-(3-methoxypropyl)carboxamide]	396
C[C@@H](CNC(=O)c1ccc(-c2ccccc2C#N)nc1NCCc1cccc(F)c1)NC(=O)CCCNC(=O)OC(C)(C)C	2020
CC(C)(C)OC(=O)NCc1ncccc1CNC(=O)c1cc(F)c(-c2ccccc2C#N)nc1NCCc1cccc(F)c1 [N-[(2-{[(tert-butoxy)carbonylamino]methyl}(3-pyridyl))methyl](6-(2-cyanophenyl)-5-fluoro-2-{[2-(3-fluorophenyl)ethyl]amino}(3-pyridyl))carboxamide]	5360
O=C(NCc1cccnc1)c1ccc(-c2ccccc2)nc1NCCc1ccccc1Cl [(2-{[2-(2-chlorophenyl)ethyl]amino}-6-phenyl(3-pyridyl))-N-(3-pyridylmethyl)carboxamide]	160
C[C@H](CNC(=O)c1ccc(-c2ccccc2C#N)nc1NCCc1cccc(F)c1)N(C)C(=O)CCCN	710
CN(C)C(=O)CCNc1nc(-c2ccccc2C#N)ccc1C(=O)NC[C@H]1CCCN1C(=O)CCCN [3-{[3-(N-{[(2R)-1-(4-aminobutanoyl)pyrrolidin-2-yl]methyl}carbamoyl)-6-(2-cyanophenyl)(2-pyridyl)]amino}-N,N-dimethylpropanamide]	3560
N#Cc1ccccc1-c1ccc(C(=O)NCCCCCN)c(NCCc2cccc(F)c2)n1 [N-(5-aminopentyl)(6-(2-cyanophenyl)-2-{[2-(3-fluorophenyl)ethyl]amino}(3-pyridyl))carboxamide]	154
O=C(NCc1cccnc1)c1ccc(-c2cnn(CCO)c2)nc1NCCc1cccc(F)c1 [(2-{[2-(3-fluorophenyl)ethyl]amino}-6-[1-(2-hydroxyethyl)pyrazol-4-yl](3-pyridyl))-N-(3-pyridylmethyl)carboxamide]	972
C[C@@H](CNC(=O)CNC(=O)OC(C)(C)C)CNC(=O)c1cc(F)c(-c2cnn(C)c2)nc1NCCc1cccc(F)c1 [N-{(2R)-3-[(5-fluoro-2-{[2-(3-fluorophenyl)ethyl]amino}-6-(1-methylpyrazol-4-yl)(3-pyridyl))carbonylamino]-2-methylpropyl}-2-[(tert-butoxy)carbonylamino]acetamide]	373
CC(C)(C)OC(=O)NCCN1CCCC1CNC(=O)c1ccc(-c2ccccc2C#N)nc1NCCc1cccc(F)c1 (stereo not drawn) [N-[(1-{2-[(tert-butoxy)carbonylamino]ethyl}pyrrolidin-2-yl)methyl](6-(2-cyanophenyl)-2-{[2-(3-fluorophenyl)ethyl]amino}(3-pyridyl))carboxamide]	4830
CC[C@H](CNC(=O)c1cc(F)c(-c2cn[nH]c2)nc1NCCc1cccc(F)c1)NC(=O)CN [N-((1R)-1-{[(5-fluoro-2-{[2-(3-fluorophenyl)ethyl]amino}-6-pyrazol-4-yl(3-pyridyl))carbonylamino]methyl}propyl)-2-aminoacetamide]	160
O=C(NCc1cccnc1)c1ccc(-c2ccccc2)nc1NCC1(O)CCCCC1 [(2-{[(hydroxycyclohexyl)methyl]amino}-6-phenyl(3-pyridyl))-N-(3-pyridylmethyl)carboxamide]	7810
CN(C)C(=O)[C@H](CN)NC(=O)c1ccc(-c2ccccc2C#N)nc1NCCc1cccc(F)c1 [(2S)-3-amino-2-[(6-(2-cyanophenyl)-2-{[2-(3-fluorophenyl)ethyl]amino}(3-pyridyl))carbonylamino]-N,N-dimethylpropanamide]	23700
CC(C)(C)OC(=O)N[C@@H](CO)C(=O)N1CC[C@@H]1CNC(=O)c1ccc(-c2ccccc2C#N)nc1NCCc1cccc(F)c1 [N-[2-((2R)-2-{[(6-(2-cyanophenyl)-2-{[2-(3-fluorophenyl)ethyl]amino}(3-pyridyl))carbonylamino]methyl}azetidinyl)(1S)-1-(hydroxymethyl)-2-oxoethyl](tert-butoxy)carboxamide]	2480

Continued, values first:

IC50 [nM]	Compound
307	CNC(=O)N1CCC[C@@H]1CNC(=O)c1ccc(-c2ccccc2C#N)nc1NCCc1cccc(F)c1 [N-{[(2R)-1-(N-methylcarbamoyl)pyrrolidin-2-yl]methyl}(6-(2-cyanophenyl)-2-{[2-(3-fluorophenyl)ethyl]amino}(3-pyridyl))carboxamide]
95	NCCCn1nccc1CNC(=O)c1ccc(-c2cn[nH]c2)nc1NCCc1cccc(F)c1 [N-{[1-(3-aminopropyl)pyrazol-5-yl]methyl}(2-{[2-(3-fluorophenyl)ethyl]amino}-6-pyrazol-4-yl(3-pyridyl))carboxamide]
24	N#Cc1ccccc1-c1ccc(C(=O)NCc2ccccc2CN)c(NCCc2cccc(F)c2)n1 [N-{[2-(aminomethyl)phenyl]methyl}(6-(2-cyanophenyl)-2-{[2-(3-fluorophenyl)ethyl]amino}(3-pyridyl))carboxamide]
27700	CNC(=O)c1ccc(-c2ccccc2)nc1NCCc1ccccn1 [N-methyl{6-phenyl-2-[(2-(2-pyridyl)ethyl)amino](3-pyridyl)}carboxamide]
1780	Cn1cc(-c2ccc(C(=O)NC[C@H]3CCCN3C(=O)CO)c(NCCc3cccc(F)c3)n2)cn1 [N-{[(2R)-1-(2-hydroxyacetyl)pyrrolidin-2-yl]methyl}(2-{[2-(3-fluorophenyl)ethyl]amino}-6-(1-methylpyrazol-4-yl)(3-pyridyl))carboxamide]
256	N#Cc1ccccc1-c1ccc(C(=O)NCC2CCCCCN2C(=O)CCN)c(NCCc2cccc(F)c2)n1 (stereo not drawn) [N-{[1-(3-aminopropanoyl)azaperhydroepin-2-yl]methyl}(6-(2-cyanophenyl)-2-{[2-(3-fluorophenyl)ethyl]amino}(3-pyridyl))carboxamide]
1630	CC(=O)N1CC(=O)N[C@@H](CNC(=O)c2ccc(-c3ccccc3C#N)nc2NCCc2cccc(F)c2)C1 (stereo in doubt) [N-[(4-acetyl-6-oxopiperazin-2-yl)methyl](6-(2-cyanophenyl)-2-{[2-(3-fluorophenyl)ethyl]amino}(3-pyridyl))carboxamide]
52	CC[C@@H](CO)CNC(=O)c1cc(F)c(-c2cn[nH]c2)nc1NCCc1cccc(F)c1 [N-((2R)-2-ethyl-3-hydroxypropyl)(5-fluoro-2-{[2-(3-fluorophenyl)ethyl]amino}-6-pyrazol-4-yl(3-pyridyl))carboxamide]
21200	CC(=O)NCC1CCCCN1C(=O)c1ccc(-c2ccccc2)nc1NCCc1ccccn1 (stereo not drawn) [N-{[1-({6-phenyl-2-[(2-(2-pyridyl)ethyl)amino]-3-pyridyl}carbonyl)-2-piperidyl]methyl}acetamide]
1000	C[C@H](CNC(=O)c1cc(F)c(-c2cnn(C)c2)nc1NCCc1cccc(F)c1)NS(C)(=O)=O [N-{(2R)-2-[(methylsulfonyl)amino]propyl}(5-fluoro-2-{[2-(3-fluorophenyl)ethyl]amino}-6-(1-methylpyrazol-4-yl)(3-pyridyl))carboxamide]
2540	O=C(NC[C@H]1CCN1C(=O)CO)c1ccc(-c2ccc(CO)s2)nc1NCCc1cccc(F)c1 [N-{[(2R)-1-(2-hydroxyacetyl)azetidin-2-yl]methyl}(2-{[2-(3-fluorophenyl)ethyl]amino}-6-[5-(hydroxymethyl)(2-thienyl)](3-pyridyl))carboxamide]
15100	CCOC(=O)CNCC(O)c1ccc(-c2ccccc2)nc1NCCc1cccc(F)c1 (stereo not drawn) [ethyl 2-{[2-(2-{[2-(3-fluorophenyl)ethyl]amino}-6-phenyl(3-pyridyl))-2-hydroxyethyl]amino}acetate]
214	CN1CCC[C@@H]1CNC(=O)c1ccc(-c2ccccc2C#N)nc1NCCc1cccc(F)c1 [N-[((2R)-1-methylpyrrolidin-2-yl)methyl](6-(2-cyanophenyl)-2-{[2-(3-fluorophenyl)ethyl]amino}(3-pyridyl))carboxamide]
944	CN[C@@H](C)CNC(=O)c1ccc(-c2ccccc2C#N)nc1NCCc1cccc(F)c1 [N-[(2S)-2-(methylamino)propyl](6-(2-cyanophenyl)-2-{[2-(3-fluorophenyl)ethyl]amino}(3-pyridyl))carboxamide]
1790	N#Cc1ccccc1-c1ccc(C(=O)NCc2ccc(Cl)nc2)c(NCCc2cccc(F)c2)n1 [N-[(6-chloro(3-pyridyl))methyl](6-(2-cyanophenyl)-2-{[2-(3-fluorophenyl)ethyl]amino}(3-pyridyl))carboxamide]
11000	O=C(NCC1CCCO1)c1ccc(-c2ccccc2)nc1NCCc1ccccn1 (stereo not drawn) [N-(oxolan-2-ylmethyl){6-phenyl-2-[(2-(2-pyridyl)ethyl)amino](3-pyridyl)}carboxamide]
488	CN1CCCC[C@@H]1CNC(=O)c1ccc(-c2ccccc2C#N)nc1NCCc1cccc(F)c1 [N-[((2R)-1-methyl(2-piperidyl))methyl](6-(2-cyanophenyl)-2-{[2-(3-fluorophenyl)ethyl]amino}(3-pyridyl))carboxamide]
100	COC(=O)[C@H](C)CNC(=O)c1cc(F)c(-c2cnn(C)c2)nc1NCCc1cccc(F)c1 [methyl (2R)-3-[(5-fluoro-2-{[2-(3-fluorophenyl)ethyl]amino}-6-(1-methylpyrazol-4-yl)(3-pyridyl))carbonylamino]-2-methylpropanoate]
2190	O=C(NCc1cccnc1)c1ccc(-c2ccccc2)nc1NCCc1cccnc1 [{6-phenyl-2-[(2-(3-pyridyl)ethyl)amino](3-pyridyl)}-N-(3-pyridylmethyl)carboxamide]
30300	O=C(NCc1cccnc1)c1ccc(-c2ccccc2)nc1NCCCn1ccnc1 [{2-[(3-imidazolylpropyl)amino]-6-phenyl(3-pyridyl)}-N-(3-pyridylmethyl)carboxamide]
